The term inhibition denotes the change of the read-out against control, counted positive when it falls.

Results on 4 compounds are retold here after patent US20030044413A1, “Methods of limiting apoptosis of cells” (Regents of the University of Minnesota, priority 1998, published 2003).

One data set deals with hepatocytes. Put plainly: TUNEL assay in liver of rats fed bile acids. Type of data set: in vivo, rat. Particulars: 10 days. The source says:
Animals and diets. Male 160-175 gram (g) Sprague-Dawley rats (Sprague-Dawley, Indianapolis, Ind.) were maintained on a 12-hour (h) light-dark cycle and fed standard laboratory chow ad libitum for 3 days. […] On day 10, the animals were sacrificed by exsanguination under ether anesthesia between 9 a.m. and 11 a.m. The livers were removed, rinsed in normal saline, and flash-frozen in liquid nitrogen. Liver tissue samples were embedded in OCT, and 5 μm-thick cryostat sections were cut and mounted on slides. […] All animals received human care in compliance with the Guide for the Care and use of Laboratory Animals, prepared by the National Academy of Sciences (NIH Publication No. 86-23, revised 1985). Terminal transferase-mediated dUTP-digoxigenin nick end labeling (TUNEL) assay. Digoxigenin-nucleotide residues were added to 3′-OH ends of double or single-stranded DNA by terminal deoxynucleotidyl transferase. Reactions were performed according to the manufacturer's recommendations (Oncor, Inc., Gaithersburg, Md.), and the specimens were then coversliped with Permount medium (Fischer Scientific, Inc., Itasca, Ill.) prior to analysis by phase-contrast microscopy using a Nikon microscope (Nikon, Inc., Melville, N.Y.). Photographs were taken using Kodak Ektar-1000 film (Eastman Kodak Co., Rochester, N.Y.).

The nature of data set [1]: Bile acid quantification by gas chromatography in primary rat hepatocytes. The conditions noted are these: 6 h. Type of data set: in vitro ADME. On the procedure:
In parallel experiments, isolated rat hepatocytes (2×10^7 cells) and HuH-7 cells (2×10^6 cells) were incubated with 50 μM or 100 μM, respectively, of DCA, UDCA or DCA+UDCA for 6 h. Cells were washed 3 times with PBS, pH 7.4, harvested, centrifuged at 800×g for 5 min in a JS-4.0 Beckman rotor (Beckman Instruments, Inc., Schaumburg, Ill.) at 4° C., washed again, and the final pellet was flash-frozen in liquid nitrogen. Cells were then analyzed for intracellular bile acid concentrations by gas chromatography.
Bile acid quantification by gas chromatography. […] Quantification of bile acids was achieved using gas chromatography, by comparing the peak height response of the individual bile acids with the peak height response obtained from the internal standard, nordeoxycholic acid, which was added to each sample prior to bile acid extraction.

Another data set concerns Cos-7 cells. Put plainly: Okadaic acid-induced apoptosis, Cos-7 cells. Type of data set: cell-based, monkey. The method, then: HuH-7 cells were treated with 1 nM TGF-β1, 100 μM of either hyodeoxycholic acid, taurocholic acid, tauroursodeoxycholic acid (Sigma Chemical Co.) or glycoursodeoxycholic acid (Steraloids Inc., Wilton, N.H.), or a combination of TGF-β1 plus the individual bile acids for 72 h. HeLa and Cos-7 cells were incubated with 50 nM okadaic acid, 100 μM of either tauroursodeoxycholic acid or glycoursodeoxycholic acid, or a combination of okadaic acid plus the individual bile acids for 24 h. In the combination groups, cells were pretreated with the bile acid alone for 60 min prior to incuation with TGF-β1 or okadaic acid. In all studies, the medium was gently removed at the indicated times and scored for nonviable cells. The attached cells were fixed for morphologic evaluation of apoptosis.
Morphological evaluation of apoptosis. Morphology was performed as described previously (Oberhammer et al., Proc. Natl. Acad. Sci. USA 89, 5408-5412 (1992)). […] Fluorescence was visualized with a Zeiss standard fluorescence microscope (Carl Zeiss, Inc., Thornwood, N.Y.). […] Stained nuclei were scored by blind analysis and categorized according to the condensation and staining characteristics of chromatin. […] Three fields per dish of approximately 500 nuclei were counted; mean values are expressed as the percent of apoptotic nuclei.

The subject of data set [2] is calcein-loaded isolated rat liver mitochondria. Put plainly: MPT fluorimetric assay (calcein release). The method, then: The fluorimetric assay was performed after loading the mitochondria with 10 μM calcein-acetoxymethyl ester (AM) (Molecular Probes Inc., Eugene, Oreg.) for 30 min at 37° C. in chelex-100 treated resuspension buffer before purification by sucrose-percoll gradient centrifugation (Botla et al., J. Pharmacol. Exp. Ther., 272, 930-938 (1995)). The assays were performed using calcein-loaded isolated mitochondria (1 mg protein/ml) in chelex-100-treated respiration buffer at 37° C. For the coincubation assays, the samples were preincubated for 10 min with 500 μM UDCA prior to addition of 200 μM DCA. The fluorescence of calcein was monitored by excitation and emission wavelengths of 490 nm and 515 nm, respectively, using a Perkin-Elmer luminescence spectrometer model LS-5B (Perkin-Elmer Ltd., Buckinghamshire, England).

Setting [3] is: rats fed chow with 0.4% bile acid.
Where [4] appears, read: incubated with 50 μM DCA and UDCA combined.
[5] abbreviates: incubated with 50 μM of the individual bile acid.

`C[C@H](CCC(=O)O)[C@H]1CC[C@H]2[C@@H]3CC[C@@H]4C[C@H](O)CC[C@]4(C)[C@H]3C[C@H](O)[C@]12C` [DCA, deoxycholic acid]: in the data set on hepatocytes (FIG. 1 legend, 0.4% in chow), the “change in TUNEL-positive cells” value is “significant increase”. In addition, in the data set on hepatocytes (setting [3]), the “increase in TUNEL-positive liver cells from control values” is about 40 fold. The “liver cells with positive nuclear staining for fragmented DNA (TUNEL)” value in the data set on hepatocytes (setting [3]) was found to be 11%. Also, the “intracellular concentration of the bile acid” value in data set [1] (setting [4]) worked out at 380.3±32.0 nmol/10^8 cells; in data set [1] (setting [5]) it was 49.5±9.9 nmol/10^8 cells.
For the compound `C[C@H](CCC(=O)O)[C@H]1CC[C@H]2[C@@H]3[C@@H](O)C[C@@H]4C[C@H](O)CC[C@]4(C)[C@H]3CC[C@]12C` [UDCA, ursodeoxycholic acid], the percent apoptosis in the data set with Cos-7 cells (okadaic acid + UDCA) was 7.3±2.4%. Moreover, the “increase in TUNEL-positive liver cells from control values” with hepatocytes (setting [3]) stood at 2 fold. Besides, the inhibition at 500 µM in data set [2] (Rattus norvegicus, 200 μM DCA, 500 μM UDCA pretreatment 10 min, read-out: inhibition of DCA-induced calcein release) was about 50%. In addition, the “intracellular concentration of the bile acid” value in data set [1] (setting [4]) stood at 263.8±39.3 nmol/10^8 cells; in data set [1] (setting [5]) it was 306.0±135.1 nmol/10^8 cells.
For the compound `C[C@H](CCC(=O)O)[C@H]1CC[C@H]2[C@@H]3C[C@H](O)[C@@H]4C[C@H](O)CC[C@]4(C)[C@H]3CC[C@]12C` [hyodeoxycholic acid], the “effect on DCA-induced calcein release” value in data set [2] (500 μM HDCA pretreatment) is listed as “did not decrease DCA-induced mitochondrial swelling (FIG. 8B) or prevent calcein release”.
For `C=C1[C@@H](O)[C@@H]2O[C@]3(CC[C@H](/C=C/[C@@H](C)[C@@H]4CC(C)=C[C@@]5(O[C@H](C[C@@](C)(O)C(=O)O)CC[C@H]5O)O4)O3)CC[C@H]2O[C@@H]1[C@@H](O)C[C@H](C)[C@H]1O[C@@]2(CCCCO2)CC[C@H]1C` [okadaic acid], the percent apoptosis in the data set on Cos-7 cells (okadaic acid alone) is given as 21.4±2.9%.
